Target: GLP-1 Receptor (Homo sapiens (Human), UniProt P43220)
Test: GLP-1R agonist cAMP stimulation assay (HEK293/GLP1R/CRE-LUC cells)
Type: cell-based
Conditions: 30 min incubation, read-out: GLP1R cAMP Stimulation DR: EC50
Experimental: Activation of GLP-1 receptor is known to stimulate cyclic AMP (cAMP) production in cells which indicates primary coupling to the Gαs subunit of the G protein heterotrimeric complex.
To optimize functional activity directed toward Gαs coupling, a HEK293/CRELuc cell line developed by HDB stably expressing the GLP-1 Receptor was used. 200× concentration of compound working solutions were prepared (Agilent Technologies Bravo) with 1/2 log serial dilution in 384-well Echo LDV plate (Labcyte, Cat #LP-0200). 50 nL/well 200× concentration of compound working solutions were moved to 384-well white low volume plate (Greiner, Cat #784075) using Labcyte ECHO550. 1×10^5 cells/mL HEK293/GLP1R/CRE-LUC (HD Biosciences) cell suspensions prepared with assay buffer [DPBS containing 0.5 mM IBMX (Sigma,Cat #I5879) and 0.1% BSA (GENVIEW, Cat #FA016-100 g)], 10 uL cell suspensions were added to each well of previous generated assay plate which already contains 50 nl compound at 200× concentration using ThermoFisher Multidrop Combi (1000cells/well). Seal the plate and incubate at 37° C. with 5% CO2 for 30 min.
After incubation the CAMP assay signal was generated using cAMP dynamic 2 Kit (Cisbio). 5 μL cAMP-d2 working solution was added to each well, followed with 5 μL Anti-cAMP antibody-cryptate working solution added to each well using ThermoFisher Multidrop Combi. Incubate at room temperature for 1 hour protected from light. Read the fluorescence at 665 and 615 nm with Reader PerkinElmer En Vision.

GLP-1 Receptor, sequence (P43220 24-463): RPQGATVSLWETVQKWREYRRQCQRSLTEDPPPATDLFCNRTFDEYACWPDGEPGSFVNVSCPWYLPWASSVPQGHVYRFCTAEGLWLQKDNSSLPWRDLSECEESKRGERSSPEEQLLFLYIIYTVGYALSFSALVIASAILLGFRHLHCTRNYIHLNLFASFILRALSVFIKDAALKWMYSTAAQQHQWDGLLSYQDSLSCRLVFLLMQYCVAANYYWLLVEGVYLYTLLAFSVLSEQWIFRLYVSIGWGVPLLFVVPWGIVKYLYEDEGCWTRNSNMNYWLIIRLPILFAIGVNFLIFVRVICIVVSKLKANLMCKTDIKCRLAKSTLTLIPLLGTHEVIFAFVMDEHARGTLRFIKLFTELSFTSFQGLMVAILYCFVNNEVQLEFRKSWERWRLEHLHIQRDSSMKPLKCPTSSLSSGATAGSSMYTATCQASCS

Row | SMILES | EC50 [µM]
1 | O=C(O)c1ccc2nc(Cc3ccc(-c4cccc5c4OCC(c4ccc(Cl)cc4F)O5)cc3)n(C[C@@H]3CCO3)c2n1 (stereo in doubt) [Compound 107a, 2-[[4-[2-(4-chloro-2-fluoro-phenyl)-2,3-dihydro-1,4-benzodioxin-5-yl]phenyl]methyl]-3-(oxetan-2-ylmethyl)imidazo[4,5-b]pyridine-5-carboxylic acid] | 0.02 to 0.2
2 | O=C(O)c1ccc2nc(CN3CCC(c4cccc5c4OC[C@H](c4ccc(Cl)cc4F)O5)CC3)n(C[C@@H]3CCO3)c2n1 [Compound 104c, 2-((4-((S)-2-(4-chloro-2-fluorophenyl)-2,3-dihydrobenzo[b][1,4]dioxin-5-yl)piperidin-1-yl)methyl)-3-(((S)-oxetan-2-yl)methyl)-3H-imidazo[4,5-b]pyridine-5-carboxylic acid] | 0.02 to 0.2
3 | O=C(O)c1ccc2nc(CN3CCC(c4cccc5c4CCC(c4ccc(Cl)cc4F)O5)CC3)n(C[C@@H]3CCO3)c2n1 (stereo partly drawn) [Compound 105a, 2-((4-(2-(4-chloro-2-fluorophenyl)chroman-5-yl)piperidin-1-yl)methyl)-3-(((S)oxetan-2-yl)methyl)-3H-imidazo[4,5-b]pyridine-5-carboxylic acid] | > 0.2
4 | O=C(O)c1ccc2nc(CN3CCC(c4cccc5c4OCC(c4ccc(Cl)cc4F)C5)CC3)n(C[C@@H]3CCO3)c2n1 (stereo partly drawn) [Compound 106a, 2-((4-(3-(4-chloro-2-fluorophenyl)chroman-8-yl)piperidin-1-yl)methyl)-3-(((S)-oxetan-2-yl)methyl)-3H-imidazo[4,5-b]pyridine-5-carboxylic acid] | 0.0002 to 0.02
5 | O=C(O)c1ccc2nc(CN3CCN(c4cccc5c4OCC(c4ccc(Cl)cc4F)O5)CC3)n(C[C@@H]3CCO3)c2n1 (stereo partly drawn) [Compound 108a, 2-((4-(2-(4-chloro-2-fluorophenyl)-2,3-dihydrobenzo[b][1,4]dioxin-5-yl)piperazin-1-yl)methyl)-3-((S)-oxetan-2-ylmethyl)-3H-imidazo[4,5-b]pyridine-5-carboxylic acid] | 0.0002 to 0.02
6 | O=C(O)c1ccc2nc(CN3CCC(c4cccc5c4OCC(c4ccccc4F)O5)CC3)n(C[C@@H]3CCO3)c2n1 (stereo partly drawn) [Compound 109a, 2-((4-(2-(2-fluorophenyl)-2,3-dihydrobenzo[b][1,4]dioxin-5-yl)piperidin-1-yl)methyl)-3-(((S)-oxetan-2-yl)methyl)-3H-imidazo[4,5-b]pyridine-5-carboxylic acid] | 0.02 to 0.2
7 | O=C(O)c1ccc2nc(CN3CCC(c4cccc5c4OC[C@H](c4ccc(Cl)cc4)O5)CC3)n(C[C@@H]3CCO3)c2n1 [Compound 111c, 2-((4-((S)-2-(4-chlorophenyl)-2,3-dihydrobenzo[b][1,4]dioxin-5-yl)piperidin-1-yl)methyl)-3-(((S)-oxetan-2-yl)methyl)-3H-imidazo[4,5-b]pyridine-5-carboxylic acid] | 0.02 to 0.2
8 | O=C(O)c1ccc2nc(CN3CCC(c4cccc5c4OCC(c4cccc(Cl)c4)O5)CC3)n(C[C@@H]3CCO3)c2n1 (stereo partly drawn) [Compound 112a, 2-((4-(2-(3-chlorophenyl)-2,3-dihydrobenzo[b][1,4]dioxin-5-yl)piperidin-1-yl)methyl)-3-(((S)-oxetan-2-yl)methyl)-3H-imidazo[4,5-b]pyridine-5-carboxylic acid] | 0.0002 to 0.02
9 | O=C(O)c1ccc2nc(CN3CCC(c4cccc5c4OCC(c4ccc(Cl)c(F)c4)O5)CC3)n(C[C@@H]3CCO3)c2n1 (stereo partly drawn) [Compound 113a, 2-((4-(2-(4-chloro-3-fluorophenyl)-2,3-dihydrobenzo[b][1,4]dioxin-5-yl)piperidin-1-yl)methyl)-3-(((S)-oxetan-2-yl)methyl)-3H-imidazo[4,5-b]pyridine-5-carboxylic acid] | 0.0002 to 0.02
10 | C[C@H]1CN(c2cccc3c2OCC(c2ccc(Cl)cc2)O3)CCN1Cc1nc2ccc(C(=O)O)nc2n1C[C@@H]1CCO1 (stereo partly drawn) [Compound 114a, 2-(((2S)-4-(2-(4-chlorophenyl)-2,3-dihydrobenzo[b][1,4]dioxin-5-yl)-2-methylpiperazin-1-yl)methyl)-3-(((S)-oxetan-2-yl)methyl)-3H-imidazo[4,5-b]pyridine-5-carboxylic acid] | 0.0002 to 0.02
11 | O=C(O)c1ccc2nc(CN3CCC(c4cccc5c4OCC(c4ccc(F)cc4)O5)CC3)n(C[C@@H]3CCO3)c2n1 (stereo partly drawn) [Compound 117a, 2-((4-(2-(4-fluorophenyl)-2,3-dihydrobenzo[b][1,4]dioxin-5-yl)piperidin-1-yl)methyl)-3-(((S)-oxetan-2-yl)methyl)-3H-imidazo[4,5-b]pyridine-5-carboxylic acid] | 0.0002 to 0.02
12 | N#Cc1ccc([C@H]2COc3c(cccc3C3CCN(Cc4nc5ccc(C(=O)O)nc5n4C[C@@H]4CCO4)CC3)O2)cc1 [Compound 118c, 2-((4-((S)-2-(4-cyanophenyl)-2,3-dihydrobenzo[b][1,4]dioxin-5-yl)piperidin-1-yl)methyl)-3-(((S)-oxetan-2-yl)methyl)-3H-imidazo[4,5-b]pyridine-5-carboxylic acid] | 0.02 to 0.2

Now from value to molecule:

Row | EC50 [µM] | SMILES
13 | 0.0002 to 0.02 | O=C(O)c1ccc2nc(CN3CCC(c4cccc5c4OCC(c4ccc(Cl)cc4F)O5)CC3)n(C[C@@H]3CCO3)c2n1 (mixture of isomers) [Compound 104a, 2-((4-(2-(4-Chloro-2-fluorophenyl)-2,3-dihydrobenzo[b][1,4]dioxin-5-yl)piperidin-1-yl)methyl)-3-((S)-oxetan-2-ylmethyl)-3H-imidazo[4,5-b]pyridine-5-carboxylic acid]
14 | ≤ 0.0002 | O=C(O)c1ccc2nc(CN3CCC(c4cccc5c4OC(c4ccc(Cl)cc4F)CO5)CC3)n(C[C@@H]3CCO3)c2n1 (single isomer, unassigned) [Compound 130b]
15 | 0.0002 to 0.02 | O=C(O)c1ccc2nc(CN3CCC(c4cccc5c4OC(c4ccc(Cl)cc4F)CO5)CC3)n(C[C@@H]3CCO3)c2n1 (single isomer, unassigned) [Compound 130c]
16 | 0.0002 to 0.02 | O=C(O)c1ccc2nc(CN3CCC(c4cccc5c4OCC(c4ccccc4)O5)CC3)n(C[C@@H]3CCO3)c2n1 (stereo partly drawn) [Compound 101a, 3-((S)-oxetan-2-ylmethyl)-2-((4-(2-phenyl-2,3-dihydrobenzo[b][1,4]dioxin-5-yl)piperidin-1-yl)methyl)-3H-imidazo[4,5-b]pyridine-5-carboxylic acid]
17 | 0.0002 to 0.02 | O=C(O)c1ccc2nc(CN3CCC(c4cccc5c4OCC(c4ccccc4)C5)CC3)n(C[C@@H]3CCO3)c2n1 (stereo partly drawn) [Compound 103a, 3-(((S)-oxetan-2-yl)methyl)-2-((4-(3-phenylchroman-8-yl)piperidin-1-yl)methyl)-3Himidazo[4,5-b]pyridine-5-carboxylic acid]
18 | 0.0002 to 0.02 | O=C(O)c1ccc2nc(CN3CCC(c4cccc5c4OC[C@@H](c4ccc(Cl)cc4F)O5)CC3)n(C[C@@H]3CCO3)c2n1 [Compound 104b, 2-((4-((R)-2-(4-chloro-2-fluorophenyl)-2,3-dihydrobenzo[b][1,4]dioxin-5-yl)piperidin-1-yl)methyl)-3-(((S)-oxetan-2-yl)methyl)-3H-imidazo[4,5-b]pyridine-5-carboxylic acid]
19 | ≤ 0.0002 | O=C(O)c1ccc2nc(CN3CCC(c4cccc5c4OCC(c4ccc(Cl)cc4)O5)CC3)n(C[C@@H]3CCO3)c2n1 (stereo partly drawn) [Compound 111a, 2-((4-(2-(4-chlorophenyl)-2,3-dihydrobenzo[b][1,4]dioxin-5-yl)piperidin-1-yl)methyl)-3-(((S)-oxetan-2-yl)methyl)-3H-imidazo[4,5-b]pyridine-5-carboxylic acid]
20 | ≤ 0.0002 | O=C(O)c1ccc2nc(CN3CCC(c4cccc5c4OC[C@@H](c4ccc(Cl)cc4)O5)CC3)n(C[C@@H]3CCO3)c2n1 [Compound 111b, 2-((4-((R)-2-(4-chlorophenyl)-2,3-dihydrobenzo[b][1,4]dioxin-5-yl)piperidin-1-yl)methyl)-3-((S)-oxetan-2-ylmethyl)-3H-imidazo[4,5-b]pyridine-5-carboxylic acid]
21 | ≤ 0.0002 | O=C(O)c1ccc2nc(CN3CCC(c4cccc5c4OCC(c4ccc(Cl)cc4)O5)CC3)n(C[C@@H]3CCO3)c2c1 (stereo partly drawn) [Compound 115a, 2-((4-(2-(4-chlorophenyl)-2,3-dihydrobenzo[b][1,4]dioxin-5-yl)piperidin-1-yl)methyl)-1-(((S)-oxetan-2-yl)methyl)-1H-benzo[d]imidazole-6-carboxylic acid]
22 | ≤ 0.0002 | Cc1ccc(C2COc3c(cccc3C3CCN(Cc4nc5ccc(C(=O)O)nc5n4C[C@@H]4CCO4)CC3)O2)cc1 (stereo partly drawn) [Compound 116a, 3-(((S)-oxetan-2-yl)methyl)-2-((4-(2-(p-tolyl)-2,3-dihydrobenzo[b][1,4]dioxin-5-yl)piperidin-1-yl)methyl)-3H-imidazo[4,5-b]pyridine-5-carboxylic acid]
23 | ≤ 0.0002 | N#Cc1ccc(C2COc3c(cccc3C3CCN(Cc4nc5ccc(C(=O)O)nc5n4C[C@@H]4CCO4)CC3)O2)cc1 (stereo partly drawn) [Compound 118a, 2-((4-(2-(4-cyanophenyl)-2,3-dihydrobenzo[b][1,4]dioxin-5-yl)piperidin-1-yl)methyl)-3-(((S)-oxetan-2-yl)methyl)-3H-imidazo[4,5-b]pyridine-5-carboxylic acid]
24 | ≤ 0.0002 | N#Cc1ccc([C@@H]2COc3c(cccc3C3CCN(Cc4nc5ccc(C(=O)O)nc5n4C[C@@H]4CCO4)CC3)O2)cc1 [Compound 118b, 2-((4-((R)-2-(4-cyanophenyl)-2,3-dihydrobenzo[b][1,4]dioxin-5-yl)piperidin-1-yl)methyl)-3-(((S)-oxetan-2-yl)methyl)-3H-imidazo[4,5-b]pyridine-5-carboxylic acid]

— US20250214999A1, “HETEROCYCLIC GLP-1 AGONISTS” (Gasherbrum Bio, Inc., priority 2020, published 2025)
